Experimental data: ChEMBL document CHEMBL3045679, “Microwave-assisted synthesis and pharmacological studies of novel 5-deazaalloxazine derivatives” (2012)
Values after ≈ are worked out from the molar mass of the structure shown. Active and inactive are the calls of the source. The calls are words filed in the database; no cut-off is given here.

Experiments:
Rhodotorula mucilaginosa [1] = experiment: Antifungal activity against Rhodotorula mucilaginosa NCIM 3174 after 72 hr by broth dilution assay; assay type: functional; conditions: NCIM 3174, 72 h
Pseudomonas aeruginosa [2] = experiment: Antibacterial activity against Pseudomonas aeruginosa NCIM 2200 at 1000 ug/disk after 24 hr by disk diffusion method; assay type: functional; conditions: NCIM 2200, 24 h, read-out: DIZ
Aspergillus niger [3] = experiment: Antifungal activity against Aspergillus niger NCIM 1196 at 500 ug/disk after 72 hr by disk diffusion method; assay type: functional
Aspergillus niger [4] = experiment: Antifungal activity against Aspergillus niger NCIM 1196 at 1000 ug/disk after 72 hr by disk diffusion method; assay type: functional; conditions: for zone of inhibition at 1000 µg/disc: NCIM 1196, 72 h, read-out: DIZ
Klebsiella aerogenes [5] = experiment: Antibacterial activity against Enterobacter aerogenes NCIM 2239 after 24 hr by broth dilution assay; assay type: functional; conditions: NCIM 2239, 24 h
Streptomyces albus [6] = experiment: Antibacterial activity against Streptomyces albus NCIM 2178 at 1000 ug/disk after 24 hr by disk diffusion method; assay type: functional; conditions: for zone of inhibition at 1000 µg/disc: NCIM 2178, 24 h, read-out: DIZ
Penicillium chrysogenum [7] = experiment: Antifungal activity against Penicillium chrysogenum NCIM 707 at 500 ug/disk after 72 hr by disk diffusion method; assay type: functional
Lipomyces lipofer [8] = experiment: Antifungal activity against Lipomyces lipofer NCIM 3252 at 1000 ug/disk after 72 hr by disk diffusion method; assay type: functional
Escherichia coli [9] = experiment: Antibacterial activity against Escherichia coli NCIM 2065 at 500 ug/disk after 24 hr by disk diffusion method; assay type: functional; conditions: for zone of inhibition at 500 µg/disc: NCIM 2065, 24 h, read-out: DIZ
Aspergillus niger [10] = experiment: Antifungal activity against Aspergillus niger NCIM 1196 after 72 hr by broth dilution assay; assay type: functional; conditions: NCIM 1196, 72 h
Bacillus cereus [11] = experiment: Antibacterial activity against Bacillus cereus NCIM 2155 at 1000 ug/disk after 24 hr by disk diffusion method; assay type: functional; conditions: NCIM 2155, 24 h, read-out: DIZ
Bacillus subtilis [12] = experiment: Antibacterial activity against Bacillus subtilis NCIM 2063 at 500 ug/disk after 24 hr by disk diffusion method; assay type: functional; conditions: for zone of inhibition at 500 µg/disc: NCIM 2063, 24 h, read-out: DIZ
Candida albicans [13] = experiment: Antifungal activity against Candida albicans NCIM 3471 at 1000 ug/disk after 72 hr by disk diffusion method; assay type: functional; conditions: for zone of inhibition at 1000 µg/disc: NCIM 3471, 72 h, read-out: DIZ
Pseudomonas aeruginosa [14] = experiment: Antibacterial activity against Pseudomonas aeruginosa NCIM 2200 after 24 hr by broth dilution assay; assay type: functional; conditions: NCIM 2200, 24 h
Streptomyces albus [15] = experiment: Antibacterial activity against Streptomyces albus NCIM 2178 at 500 ug/disk after 24 hr by disk diffusion method; assay type: functional, organism-based
Rhodotorula mucilaginosa [16] = experiment: Antifungal activity against Rhodotorula mucilaginosa NCIM 3174 at 500 ug/disk after 72 hr by disk diffusion method; assay type: functional
Escherichia coli [17] = experiment: Antibacterial activity against Escherichia coli NCIM 2065 at 1000 ug/disk after 24 hr by disk diffusion method; assay type: functional; conditions: NCIM 2065, 24 h, read-out: DIZ
Penicillium chrysogenum [18] = experiment: Antifungal activity against Penicillium chrysogenum NCIM 707 at 1000 ug/disk after 72 hr by disk diffusion method; assay type: functional; conditions: for zone of inhibition at 1000 µg/disc: NCIM 707, 72 h, read-out: DIZ
Aspergillus flavus [19] = experiment: Antifungal activity against Aspergillus flavus NCIM 535 at 1000 ug/disk after 72 hr by disk diffusion method; assay type: functional; conditions: for zone of inhibition at 1000 µg/disc: NCIM 535, 72 h, read-out: DIZ
Klebsiella aerogenes [20] = experiment: Antibacterial activity against Enterobacter aerogenes NCIM 2239 at 1000 ug/disk after 24 hr by disk diffusion method; assay type: functional; conditions: NCIM 2239, 24 h, read-out: DIZ
Bacillus subtilis [21] = experiment: Antibacterial activity against Bacillus subtilis NCIM 2063 after 24 hr by broth dilution assay; assay type: functional; conditions: NCIM 2063, 24 h
Aspergillus flavus [22] = experiment: Antifungal activity against Aspergillus flavus NCIM 535 at 500 ug/disk after 72 hr by disk diffusion method; assay type: functional
Bacillus cereus [23] = experiment: Antibacterial activity against Bacillus cereus NCIM 2155 after 24 hr by broth dilution assay; assay type: functional; conditions: NCIM 2155, 24 h
Lipomyces lipofer [24] = experiment: Antifungal activity against Lipomyces lipofer NCIM 3252 at 500 ug/disk after 72 hr by disk diffusion method; assay type: functional
Escherichia coli [25] = experiment: Antibacterial activity against Escherichia coli NCIM 2065 after 24 hr by broth dilution assay; assay type: functional; conditions: NCIM 2065, 24 h
Pseudomonas aeruginosa [26] = experiment: Antibacterial activity against Pseudomonas aeruginosa NCIM 2200 at 500 ug/disk after 24 hr by disk diffusion method; assay type: functional
Candida albicans [27] = experiment: Antifungal activity against Candida albicans NCIM 3471 at 500 ug/disk after 72 hr by disk diffusion method; assay type: functional
Bacillus cereus [28] = experiment: Antibacterial activity against Bacillus cereus NCIM 2155 at 500 ug/disk after 24 hr by disk diffusion method; assay type: functional
Klebsiella aerogenes [29] = experiment: Antibacterial activity against Enterobacter aerogenes NCIM 2239 at 500 ug/disk after 24 hr by disk diffusion method; assay type: functional
Bacillus subtilis [30] = experiment: Antibacterial activity against Bacillus subtilis NCIM 2063 at 1000 ug/disk after 24 hr by disk diffusion method; assay type: functional; conditions: NCIM 2063, 24 h, read-out: DIZ
Rhodotorula mucilaginosa [31] = experiment: Antifungal activity against Rhodotorula mucilaginosa NCIM 3174 at 1000 ug/disk after 72 hr by disk diffusion method; assay type: functional; conditions: for zone of inhibition at 1000 µg/disc: NCIM 3174, 72 h, read-out: DIZ
Candida albicans [32] = experiment: Antifungal activity against Candida albicans NCIM 3471 after 72 hr by broth dilution assay; assay type: functional; conditions: NCIM 3471, 72 h
Streptomyces albus [33] = experiment: Antibacterial activity against Streptomyces albus NCIM 2178 after 24 hr by broth dilution assay; assay type: functional; conditions: NCIM 2178, 24 h
Lipomyces lipofer [34] = experiment: Antifungal activity against Lipomyces lipofer NCIM 3252 after 72 hr by broth dilution assay; assay type: functional; conditions: NCIM 3252, 72 h

| MIC (Klebsiella aerogenes [5]) | MIC (Aspergillus niger [10]) | MIC (Pseudomonas aeruginosa [14]) | MIC (Bacillus subtilis [21]) | MIC (Bacillus cereus [23]) | MIC (Escherichia coli [25]) | Structure (SMILES) | zone of inhibition at 1000 µg/disc (Pseudomonas aeruginosa [2]) | diameter of the inhibition zone (DIZ) (Aspergillus niger [3]) | zone of inhibition at 1000 µg/disc (Aspergillus niger [4]) | diameter of the inhibition zone (DIZ) (Penicillium chrysogenum [7]) | diameter of the inhibition zone (DIZ) (Lipomyces lipofer [8]) | zone of inhibition at 1000 µg/disc (Bacillus cereus [11]) | diameter of the inhibition zone (DIZ) (Streptomyces albus [15]) | zone of inhibition at 1000 µg/disc (Escherichia coli [17]) | zone of inhibition at 1000 µg/disc (Klebsiella aerogenes [20]) | diameter of the inhibition zone (DIZ) (Aspergillus flavus [22]) | diameter of the inhibition zone (DIZ) (Pseudomonas aeruginosa [26]) | diameter of the inhibition zone (DIZ) (Candida albicans [27]) | diameter of the inhibition zone (DIZ) (Klebsiella aerogenes [29]) | zone of inhibition at 1000 µg/disc (Bacillus subtilis [30]) | other results |
| --- | --- | --- | --- | --- | --- | --- | --- | --- | --- | --- | --- | --- | --- | --- | --- | --- | --- | --- | --- | --- | --- |
| 62.5 µg/mL (≈ 257 µM) | 125 µg/mL (≈ 514 µM) | 62.5 µg/mL (≈ 257 µM) | 62.5 µg/mL (≈ 257 µM) | 31.5 µg/mL (≈ 130 µM) | 7.8 µg/mL (≈ 32.1 µM) | COc1cccc2cc3c(=O)[nH]c(=O)[nH]c3nc12 | 10 mm | inactive | 11 mm | inactive | inactive | 12 mm | inactive | 12 mm | 8 mm | inactive | inactive | inactive | inactive | 10 mm | MIC (Rhodotorula mucilaginosa [1]): 31.2 µg/mL (≈ 128 µM); diameter of the inhibition zone (DIZ) (Streptomyces albus [6]): inactive; diameter of the inhibition zone (DIZ) (Escherichia coli [9]): inactive; diameter of the inhibition zone (DIZ) (Bacillus subtilis [12]): inactive; zone of inhibition at 1000 µg/disc (Candida albicans [13]): 12 mm; zone of inhibition at 500 µg/disc (Rhodotorula mucilaginosa [16]; NCIM 3174, 72 h, read-out: DIZ): 8 mm; zone of inhibition at 1000 µg/disc (Penicillium chrysogenum [18]): 8 mm; zone of inhibition at 1000 µg/disc (Aspergillus flavus [19]): 8 mm; diameter of the inhibition zone (DIZ) (Lipomyces lipofer [24]): inactive; diameter of the inhibition zone (DIZ) (Bacillus cereus [28]): inactive; zone of inhibition at 1000 µg/disc (Rhodotorula mucilaginosa [31]): 10 mm; MIC (Candida albicans [32]): 125 µg/mL (≈ 514 µM) |
| 62.5 µg/mL (≈ 252 µM) | – | 31.2 µg/mL (≈ 126 µM) | 31.2 µg/mL (≈ 126 µM) | 31.2 µg/mL (≈ 126 µM) | 7.8 µg/mL (≈ 31.5 µM) | O=c1[nH]c(=O)c2cc3cc(Cl)ccc3nc2[nH]1 | 12 mm | inactive | – | inactive | inactive | 10 mm | inactive | 12 mm | 8 mm | inactive | inactive | inactive | inactive | 12 mm | diameter of the inhibition zone (DIZ) (Aspergillus niger [4]): inactive; zone of inhibition at 1000 µg/disc (Streptomyces albus [6]): 10 mm; zone of inhibition at 500 µg/disc (Escherichia coli [9]): 9 mm; zone of inhibition at 500 µg/disc (Bacillus subtilis [12]): 8 mm; zone of inhibition at 1000 µg/disc (Candida albicans [13]): 10 mm; diameter of the inhibition zone (DIZ) (Rhodotorula mucilaginosa [16]): inactive; MIC (Streptomyces albus [33]): 62.5 µg/mL (≈ 252 µM); diameter of the inhibition zone (DIZ) (Penicillium chrysogenum [18]): inactive; diameter of the inhibition zone (DIZ) (Aspergillus flavus [19]): inactive; diameter of the inhibition zone (DIZ) (Lipomyces lipofer [24]): inactive; zone of inhibition at 500 µg/disc (Bacillus cereus [28]; NCIM 2155, 24 h, read-out: DIZ): 8 mm; zone of inhibition at 1000 µg/disc (Rhodotorula mucilaginosa [31]): 9 mm |
| 15.6 µg/mL (≈ 64.1 µM) | 3.9 µg/mL (≈ 16 µM) | 6.5 µg/mL (≈ 26.7 µM) | 31.2 µg/mL (≈ 128 µM) | 31.2 µg/mL (≈ 128 µM) | 31.2 µg/mL (≈ 128 µM) | Cc1cccc2cc3c(=O)[nH]c(=S)[nH]c3nc12 | 12 mm | – | 16 mm | inactive | – | 13 mm | inactive | 11 mm | 10 mm | inactive | inactive | inactive | inactive | 12 mm | zone of inhibition at 500 µg/disc (Aspergillus niger [3]; NCIM 1196, 72 h, read-out: DIZ): 12 mm; MIC (Lipomyces lipofer [34]): 125 µg/mL (≈ 514 µM); zone of inhibition at 1000 µg/disc (Streptomyces albus [6]): 12 mm; zone of inhibition at 1000 µg/disc (Lipomyces lipofer [8]; NCIM 3252, 72 h, read-out: DIZ): 10 mm; zone of inhibition at 500 µg/disc (Escherichia coli [9]): 8 mm; zone of inhibition at 500 µg/disc (Bacillus subtilis [12]): 9 mm; diameter of the inhibition zone (DIZ) (Candida albicans [13]): inactive; diameter of the inhibition zone (DIZ) (Rhodotorula mucilaginosa [16]): inactive; MIC (Streptomyces albus [33]): 125 µg/mL (≈ 514 µM); zone of inhibition at 1000 µg/disc (Penicillium chrysogenum [18]): 9 mm; zone of inhibition at 1000 µg/disc (Aspergillus flavus [19]): 10 mm; zone of inhibition at 500 µg/disc (Lipomyces lipofer [24]; NCIM 3252, 72 h, read-out: DIZ): 8 mm; diameter of the inhibition zone (DIZ) (Bacillus cereus [28]): inactive; diameter of the inhibition zone (DIZ) (Rhodotorula mucilaginosa [31]): inactive |
